According to PMC10300352, “Discovery of novel benzylquinazoline molecules as p97/VCP inhibitors” (Frontiers in Pharmacology, 2023):
Read-outs that look alike come from different tables or passages of the source.

Assays:
[1] = Myelosuppressive toxicity evaluation, peripheral blood counts of s180 mice; assay type: in vivo, ICR mice; conditions: day 10, 90 μmol/kg/day, vs vehicle
Procedure: To determine the effects on myelosuppression, WBC, RBC, PLT count, ALC, and ANC were performed in peripheral blood samples of s180 mice (Figure 7F) on day 10.

p97 [2] = conditions: cited from earlier work
[3] = test system: SQSTM1/p62, ATF4, and NF-κB in HCT116 cells; test: Western blot of p97 downstream biomarkers; conditions: DBeQ 10 μM, CB-5083 0.5 μM, 8 h treatment
Procedure: HCT116 cells were plated into 6-well plates (2 × 10^6 cells/well) when they were 70%–80% confluent. DMSO (0.5% v/v) or compounds were added, and cells were harvested after 8 h of treatment and washed three times with phosphate-buffered saline (PBS, pH 7.4). […] The secondary antibodies used were goat anti-mouse IgG (HRP, Abcam/ab6789).

A549 = test: Cell proliferation assay (MTT/CCK-8), A549; conditions: Homo sapiens, A549, 48 h, read-out: IC50 A549
Procedure: (§1) Cells were treated with the tested compounds in a variety of concentrations and incubated at 37°C for 48 h before measurement. IC50 values were calculated using the percentage of growth of treated cells versus the blank control (Table 2).
(§2) The medium was supplemented with 10% fetal bovine serum (FBS) (Hyclone, SH30084.03). Cells were cultured in an incubator containing 5% CO2 at 37°C.
(§3) Cells were seeded at 3,000–4,000 cells per well in a 96-well plate to test the antiproliferative activity of target compounds. Cells were treated with the compounds or positive controls 6 h after seeding (twofold dilution, eight concentrations). […] The results were analyzed using GraphPad Prism 7.0.

K562 = test: Cell proliferation assay (MTT/CCK-8), K562; conditions: Homo sapiens, K562, 48 h, read-out: IC50 K562
Procedure: as §1, §2, §3

s180 = test: Cell proliferation assay (MTT/CCK-8), s180; conditions: Mus musculus, S-180, 48 h, read-out: IC50 s180
Procedure: (§4) Cells were treated with the tested compounds in a variety of concentrations and incubated at 37°C for 48 h before measurement. […] Furthermore, we evaluated all compounds’ potency toward the normal human cell line NCM460.
as §2, §3

HepG2 = test: Cell proliferation assay (MTT/CCK-8), HepG2; conditions: Homo sapiens, HepG2, 48 h, read-out: IC50 HepG2
Procedure: as §1, §2, §3

HCT116 = test: Cell proliferation assay (MTT/CCK-8), HCT116; conditions: Homo sapiens, HCT-116, 48 h, read-out: IC50 HCT116
Procedure: as §1, §2, §3

RPMI-8226 = test: Cell proliferation assay (MTT/CCK-8), RPMI-8226; conditions: Homo sapiens, RPMI-8226, 48 h, read-out: IC50 RPMI-8226
Procedure: as §1, §2, §3

HCT116 cells [4] = test: Apoptosis assay, annexin V/PI staining and flow cytometry; conditions: 10 μM, 12 h; control cells 3.5%
Procedure: Apoptosis was measured by flow cytometry after staining with annexin V and propidium iodide (PI) in HCT116 (Figure 5).
The assay was performed as recommended by the manufacturer. Briefly, the HCT116 cells were seeded in 6-well plates (2 × 10^6 cells/well) and allowed to adhere for 4 hours. Then, each well was treated with DMSO (0.5% v/v) or compounds for 12 h. For the apoptosis experiment, at the end of treatment, the cells were washed twice with cold PBS and then harvested for staining with annexin V in binding buffer for 15 min in the dark at room temperature. The cells were washed in binding buffer and then incubated with propidium iodide. […] The samples were measured using flow cytometry (Beckman, cytoFLEX) within 4 h and analyzed using CytExpert (V 2.4.0.28).

NCM460 = test: Cell proliferation assay (MTT/CCK-8), normal colon mucosal epithelial cell line NCM460; conditions: Homo sapiens, NCM460, 48 h, read-out: IC50 NCM460
Procedure: as §4, §2, §3

HCT116 cells [5] = test: Cell cycle assay, PI staining and flow cytometry; assay type: cell-based, human; conditions: for effect on the cell cycle: HCT116, 12 h
p97 ATPase = p97 ATPase (Homo sapiens, UniProt P55072); test: p97 ATPase inhibition, ADP-Glo kinase assay; conditions: for IC50 of inactivation activities against p97: ADP-Glo, 20 nM p97, 20 μM ATP
Chain of p97 ATPase (P55072 whole entry): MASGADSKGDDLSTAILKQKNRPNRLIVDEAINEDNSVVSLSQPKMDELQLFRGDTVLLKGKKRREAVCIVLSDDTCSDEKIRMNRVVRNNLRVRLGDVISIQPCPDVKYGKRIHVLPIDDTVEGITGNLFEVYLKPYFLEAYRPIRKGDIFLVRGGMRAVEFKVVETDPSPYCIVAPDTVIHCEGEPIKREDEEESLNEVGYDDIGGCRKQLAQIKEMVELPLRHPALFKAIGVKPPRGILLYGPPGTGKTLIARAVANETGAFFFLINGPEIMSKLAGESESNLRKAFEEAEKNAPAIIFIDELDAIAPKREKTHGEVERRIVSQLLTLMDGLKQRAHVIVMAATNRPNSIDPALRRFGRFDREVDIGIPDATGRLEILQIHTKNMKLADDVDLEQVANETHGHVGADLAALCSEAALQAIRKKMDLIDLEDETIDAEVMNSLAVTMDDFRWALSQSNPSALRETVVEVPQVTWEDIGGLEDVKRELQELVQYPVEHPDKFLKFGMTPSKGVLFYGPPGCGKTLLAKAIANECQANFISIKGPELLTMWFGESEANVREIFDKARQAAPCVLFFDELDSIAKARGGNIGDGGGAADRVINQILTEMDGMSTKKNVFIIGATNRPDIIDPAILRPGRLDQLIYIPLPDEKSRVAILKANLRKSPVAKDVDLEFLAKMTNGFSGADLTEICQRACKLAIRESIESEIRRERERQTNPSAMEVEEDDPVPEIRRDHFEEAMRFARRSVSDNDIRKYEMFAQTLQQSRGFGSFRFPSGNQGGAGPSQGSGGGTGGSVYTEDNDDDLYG
Procedure: As the major indicator of p97 inhibitors, the inactivation of p97 ATPase by the tested compounds was determined using an ADP-Glo kinase assay, in which the formation of ADP represented the activity of ATPase.
His‐tagged human VCP (hVCP) cDNA was amplified by PCR and cloned into PCR‐linearized pET15 b (Merck Millipore, Burlington, MA, United States) using a CloneEZ Kit (Genscript). The pET15 b‐hVCP plasmid was transformed into Escherichia coli BL21 (Rosetta; Novagen, Madison, WI, United States), and the transformed bacteria were pre-cultured in LB medium containing kanamycin and chloramphenicol overnight at 37°C. Protein expression was induced with 1 mmol/L isopropyl‐β‐D‐thiogalactopyranoside.
Protein concentrations were first normalized using a Pierce BCA protein assay kit (Thermo Fisher), and a standard series was prepared with the BSA provided (2 mg/ml–25 μg/μL). Twenty-five microliters of each standard and unknown sample was added to a 96-well plate in triplicate, and 200 μL of working reagent was added to each well and prepared according to the manufacturer’s guidelines.
The protein solution was diluted to 20 nM of p97 with 20 μM ATP in triplicate in 5 μL of 1× Kinase Reaction Buffer A (40 mM Tris, pH 7.5, 20 mM MgCl2, 0.1 mg/mL BSA) and incubated at 37°C for 30 min. After incubation, the solutions were equilibrated to RT for 5 min, and 5 μL of ADP-Glo reagent was added to stop the reaction and consume the remaining ATP. The solution was incubated for 40 min at RT. Ten microliters of kinase detection reagent was added and incubated for 30 min. The sample’s luminescence was recorded using a multimode microplate reader (SMP7, MD). Each sample was averaged across the three measurements and plotted as mean ± standard deviation.

His6-p97 = His6-p97 (Homo sapiens, UniProt P55072); test: Microscale thermophoresis (MST) binding assay with fluorescent-labeled His6-p97
Chain of His6-p97 (P55072 whole entry): as above
Procedure: Fluorescent labeling of His6-p97 was carried out using the RED-tris-NTA labeling kit (Catalog No. MO-L011, NanoTemper Technologies) on a NanoTemper Monolith NT.115 following the manufacturer’s protocol. In brief, His6-p97 protein was diluted into 200 nM with PBST (0.05% Tween 20 in PBS), and red-NHS dye was diluted into 100 nM with PBST. Then, His6-p97 and RED-tris-NTA dye were mixed in a 1:1 volumetric ratio and incubated at room temperature for 30 min. […] Then 10 μL of compounds were mixed at different concentrations with 10 μL of dye-labeled His6-p97. Subsequently, well-mixed solutions containing compounds and dye-labeled His6-p97 were loaded into capillaries (Catalog No. MO-K025, NanoTemper Technologies), which were placed in slots 1–16 on the capillary rack. Then, MST experiments were carried out at an ambient temperature, and the instrument parameters were set to 20% LED power and medium MST power. The equilibrium dissociation constants were derived from the M.O. Affinity Analysis software using the K d model based on four independently titrated experiments per condition.

p97 [6] = test: In vivo p97 expression measurement by ELISA; conditions: day 10, oral 90 μmol/kg/day
[7] = literature values of DBeQ derivatives, Figure 2, read-out: IC50 (p97 inhibitors developed by several research groups)

Row | SMILES | IC50 (p97 [2]; [7]) | IC50 (A549) | IC50 (K562) | IC50 (s180) | IC50 (HepG2) | IC50 (HCT116) | IC50 (RPMI-8226) | proportion of apoptotic cells (HCT116 cells [4]) | IC50 (NCM460) | Kd (His6-p97) | other results
1 | Cc1cc2c(C(N)=O)cccc2n1-c1nc2c(c(NCc3ccccc3)n1)COCC2 [CB-5083, reference compound] | 0.011 µM | 0.77 ± 0.38 µM | 0.7 ± 0.42 µM | 0.24 ± 0.29 µM | 0.16 ± 0.03 µM | 0.47 ± 0.16 µM | 0.15 ± 0.02 µM | 20.42% | 0.078 ± 0.015 µM | – | ALC [1]: significantly lower; ANC [1]: significantly lower; WBC [1]: significantly lower; body weight change (oral 90 μmol/kg/day, 10 days): obvious weight loss effects; death of mice during the in vivo experiments (oral 90 μmol/kg/day, 10 days): death occurred on day 8; autophagosome formation in the cytoplasm [3]: induced accumulation; levels of the ER stress biomarker (ATF4) [3]: increased levels
2 | O=C(NNc1ncnc2ccccc12)c1cnccn1 [Compound 4, Nʹ-(Quinazolin-4-yl)pyrazine-2-carbohydrazide] | – | > 100 µM | 66.7 ± 9.97 µM | 1.04 ± 0.37 µM | > 100 µM | 3.48 ± 0.21 µM | 5.24 ± 0.45 µM | 8.31% | 49.8 ± 3.25 µM | 0.64 ± 0.26 µM | effect on the cell cycle (HCT116 cells [5]): cell proportion in the S phase in the compound 4-treated group was notably higher than that in the vehicle group; IC50 (p97 ATPase): 0.108 µM
3 | Nc1nccnc1C(=O)NNc1ncnc2ccccc12 [Compound 5, 3-Amino-Nʹ-(quinazolin-4-yl)pyrazine-2-carbohydrazide] | – | 24.2 ± 5.39 µM | 1.79 ± 0.73 µM | 6.9 ± 2 µM | 4.53 ± 1.26 µM | 5.83 ± 1.03 µM | 0.75 ± 0.01 µM | 9.34% | 24.2 ± 1.05 µM | 0.4 ± 0.15 µM | IC50 (p97 ATPase): 0.072 µM
4 | COc1cccc2c(NNC(=O)c3cnccn3)ncnc12 [Compound 6, Nʹ-(8-Methoxyquinazolin-4-yl)pyrazine-2-carbohydrazide] | – | > 100 µM | > 100 µM | 1.72 ± 0.69 µM | > 100 µM | 2.94 ± 0.1 µM | 3.61 ± 0.27 µM | 20.68% | 36.2 ± 2.89 µM | – | ALC [1]: no significant changes; ANC [1]: no significant changes; PLT count [1]: no significant changes; RBC [1]: no significant changes; WBC [1]: no significant changes; death of mice during the in vivo experiments (mouse, in vivo, po): no mice died; body weight change (oral 90 μmol/kg/day, 10 days): No obvious loss of body weight
5 | COc1cccc2c(NNC(=O)c3nccnc3N)ncnc12 [Compound 7, 3-Amino-Nʹ-(8-methoxyquinazolin-4-yl)pyrazine-2-carbohydrazide] | – | > 100 µM | > 100 µM | 32.4 ± 2.57 µM | > 100 µM | > 100 µM | 39.8 ± 0.95 µM | 8.94% | 27.3 ± 1.62 µM | – | effect on the cell cycle (HCT116 cells [5]): arrested the cells in both G0/G1 and S phases
6 | O=C(O)/C=C/c1ccc(Nc2nc(NCc3cnccn3)c3ccccc3n2)cc1 [Compound 10a, (E)-3-(4-((4-((Pyrazin-2-ylmethyl)amino)quinazolin-2-yl)amino)phenyl)acrylic acid] | – | – | – | – | – | – | – | – | – | 5 µM | IC50 of inactivation activities against p97 (p97 ATPase): Inactive
7 | COc1cccc2c(NCc3cnccn3)nc(Nc3ccc(/C=C/C(=O)O)cc3)nc12 [Compound 10b, (E)-3-(4-((8-Methoxy-4-((pyrazin-2-ylmethyl)amino)quinazolin-2-yl)amino)phenyl)acrylic acid] | – | – | – | – | – | – | – | – | – | > 10 µM | IC50 of inactivation activities against p97 (p97 ATPase): Inactive
8 | NC(=O)/C=C/c1ccc(Nc2nc(NCc3cnccn3)c3ccccc3n2)cc1 [Compound 11a, (E)-3-(4-((4-((Pyrazin-2-ylmethyl)amino)quinazolin-2-yl)amino)phenyl)acrylamide] | – | – | – | – | – | – | – | – | – | > 10 µM | IC50 of inactivation activities against p97 (p97 ATPase): Inactive
9 | COc1cccc2c(NCc3cnccn3)nc(Nc3ccc(/C=C/C(N)=O)cc3)nc12 [Compound 11b, (E)-3-(4-((8-Methoxy-4-((pyrazin-2-ylmethyl)amino)quinazolin-2-yl)amino)phenyl)acrylamide] | – | – | – | – | – | – | – | – | – | > 10 µM | IC50 of inactivation activities against p97 (p97 ATPase): Inactive
10 | COc1cccc2c(NCc3ccccc3)nc(NCc3ccccc3)nc12 [Compound P2-B11] | 3.4 µM | – | – | – | – | – | – | – | – | – | –
11 | c1ccc(CNc2nc(NCc3ccccc3)c3ccccc3n2)cc1 [DBeQ] | – | 11.6 ± 0.84 µM | 5.64 ± 1.08 µM | 2.69 ± 0.82 µM | 7.57 ± 1.2 µM | 4.78 ± 0.22 µM | 4.29 ± 2.46 µM | 19.65% | 6.44 ± 0.36 µM | 0.68 ± 0.059 µM | G0/G1 phase fraction (HCT116 cells [5]; 12 h, same concentration as apoptosis measurement, vehicle 32.82%): 33.53%; percentage of cells in the S phase (HCT116 cells [5]; 12 h, vehicle 23.61%): 16.74%; percentage of cells in the G2/M phase (HCT116 cells [5]; 12 h, vehicle 43.51%): 49.30%; effect on the cell cycle (HCT116 cells [5]): arrested the cell cycle at the G2/M phase; ALC [1]: significantly reduced; ANC [1]: no significant alterations; PLT count [1]: no significant alterations; RBC [1]: no significant alterations; WBC [1]: significantly reduced; IC50 (p97 [2]; ref Chou et al., 2011, read-out: IC50 in the ATPase activity assays): < 10 µM; autophagosome formation in the cytoplasm [3]: induced accumulation; levels of the ER stress biomarker (ATF4) [3]: increased levels; IC50 (p97 ATPase): 0.657 µM; p97 concentration in the serum (p97 [6]): lowered
12 | COc1cccc2c(NCc3ccccc3)nc(-n3c(C)cc4c(NS(C)(=O)=O)cccc43)nc12 [ML-240] | 0.11 µM | – | – | – | – | – | – | – | – | – | –
13 | c1ccc(CNc2nc(N3CCOc4ccccc43)nc3c2CCCC3)cc1 [ML-241] | 0.1 µM | – | – | – | – | – | – | – | – | – | –
14 | Cc1cc2c(NS(C)(=O)=O)cccc2n1-c1nc2c(c(NCc3ccccc3)n1)COCC2 [compound 35] | 0.036 µM | – | – | – | – | – | – | – | – | – | –
